Several values for one entry are separate records, joined by “and”; a condition that tells them apart may be missing. Equal entries are not always repeated. Toxic doses and inconclusive results are not listed.
Test system: CD2F1 mice, L1210 leukemia ip, survival T/C
Assay: NCI In Vivo Anticancer Drug Screen. Data for tumor model L1210 Leukemia (intraperitoneal) in CD2F1 (CDF1) mice
Details: higher = longer survival
In short: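 Compound-dosed mice with transplantable tumor versus matched vehicle controls; endpoint ratio T/C reported.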

[1] = endpoint: mean survival time, dose: 100.0 mg/kg/injection, schedule: Q01DX009 (ip), vehicle: saline with Tween-80
[2] = endpoint: mean survival time, dose: 100.0 mg/kg/injection, schedule: Q04DX003 (ip), vehicle: saline with Tween-80
[3] = endpoint: mean survival time, dose: 200.0 mg/kg/injection, schedule: Q01DX009 (ip), vehicle: saline with Tween-80
[4] = endpoint: mean survival time, dose: 200.0 mg/kg/injection, schedule: Q04DX003 (ip), vehicle: saline with Tween-80
[5] = endpoint: mean survival time, dose: 400.0 mg/kg/injection, schedule: Q01DX009 (ip), vehicle: saline with Tween-80
[6] = endpoint: mean survival time, dose: 400.0 mg/kg/injection, schedule: Q04DX003 (ip), vehicle: saline with Tween-80
[7] = endpoint: mean survival time, dose: 25.0 mg/kg/injection, schedule: Q04DX002 (ip), vehicle: saline with Tween-80
[8] = endpoint: mean survival time, dose: 50.0 mg/kg/injection, schedule: Q04DX002 (ip), vehicle: saline with Tween-80
[9] = endpoint: mean survival time, dose: 100.0 mg/kg/injection, schedule: Q04DX002 (ip), vehicle: saline with Tween-80
[10] = endpoint: mean survival time, dose: 200.0 mg/kg/injection, schedule: Q04DX002 (ip), vehicle: saline with Tween-80
[11] = endpoint: mean survival time, dose: 400.0 mg/kg/injection, schedule: Q04DX002 (ip), vehicle: saline with Tween-80

SMILES: CN(C)c1nc(F)nc2c1ncn2C1OC(CO)C(O)C1O (stereo not drawn)
- T/C (endpoint: mean survival time, dose: 75.0 mg/kg/injection, schedule: Q01DX001 (ip), vehicle: other): 100 % of control
- T/C (endpoint: mean survival time, dose: 150.0 mg/kg/injection, schedule: Q01DX001 (ip), vehicle: other): 109 % of control
- T/C (endpoint: mean survival time, dose: 300.0 mg/kg/injection, schedule: Q01DX001 (ip), vehicle: other): 109 % of control

SMILES: Cc1nc(/N=C(/N)N(C)C)[nH]c(=O)c1C
- T/C (endpoint: mean survival time, dose: 100.0 mg/kg/injection, schedule: Q01DX001 (ip), vehicle: saline): 97 % of control
- T/C (endpoint: mean survival time, dose: 200.0 mg/kg/injection, schedule: Q01DX001 (ip), vehicle: saline): 103 % of control
- T/C (endpoint: mean survival time, dose: 400.0 mg/kg/injection, schedule: Q01DX001 (ip), vehicle: saline): 109 % of control

SMILES: O=C(Oc1ccccc1Cl)c1ccccc1
- T/C [1]: 100 % of control
- T/C [2]: 105 % of control
- T/C [3]: 98 % of control
- T/C [4]: 100 % of control
- T/C [5]: 108 % of control
- T/C [6]: 111 % of control

SMILES: Cc1cc(CO)c(O)c(CO)c1
- T/C [1]: 91 % of control
- T/C [3]: 91 % of control
- T/C [5]: 91 % of control

SMILES: COC(=O)C1C(C(C)=O)C2C(=O)C3C(C(=O)OC)C(C(=O)OC)C3C(=O)C12 (stereo not drawn)
- T/C [7]: 93 % of control
- T/C [8]: 96 % of control
- T/C [9]: 100 % of control
- T/C [10]: 96 % of control

SMILES: O=C(CCl)c1cnc2ccccc2n1
- T/C (endpoint: mean survival time, dose: 5.0 mg/kg/injection, schedule: Q01DX001 (ip), vehicle: saline): 91 % of control
- T/C (endpoint: mean survival time, dose: 10.0 mg/kg/injection, schedule: Q01DX001 (ip), vehicle: saline): 94 % of control
- T/C (endpoint: mean survival time, dose: 20.0 mg/kg/injection, schedule: Q01DX001 (ip), vehicle: saline): 95 % of control

SMILES: CN(N=O)C(=O)NCC1OC(OC2(CO)OC(CNC(=O)N(C)N=O)C(O)C2O)C(O)C(O)C1O (stereo not drawn)
- T/C (endpoint: mean survival time, dose: 50.0 mg/kg/injection, schedule: Q01DX009 (ip), vehicle: saline): 119 % of control
- T/C (endpoint: mean survival time, dose: 100.0 mg/kg/injection, schedule: Q01DX009 (ip), vehicle: saline): 122 % of control
- T/C (endpoint: mean survival time, dose: 133.0 mg/kg/injection, schedule: Q01DX009 (ip), vehicle: saline): 107 % of control

SMILES: COc1ccc(/C=C(\C#N)C(=O)NCCc2ccc(OC)c(OC)c2)cc1OC
- T/C [9]: 95 % of control
- T/C [10]: 95 % of control
- T/C [11]: 95 % of control

SMILES: COC(COC(=O)N1CCN(C=O)CC1)C1=C(N2CC2)C(=O)C(C)=C(N2CC2)C1=O (stereo not drawn)
- T/C (endpoint: median survival time, dose: 3.0 mg/kg/injection, schedule: Q01DX005 (ip), vehicle: saline): 168 % of control
- T/C (endpoint: median survival time, dose: 3.6 mg/kg/injection, schedule: Q01DX005 (ip), vehicle: saline): 160 % of control
- T/C (endpoint: median survival time, dose: 6.0 mg/kg/injection, schedule: Q01DX005 (ip), vehicle: saline): 190 % of control and 191 % of control
- T/C (endpoint: median survival time, dose: 12.0 mg/kg/injection, schedule: Q01DX005 (ip), vehicle: saline): 111 % of control

SMILES: O=C1c2ccccc2-c2ccc(-c3ccc4c5c(cccc35)C(=O)c3ccccc3-4)c3cccc1c23
- T/C [2]: 97 % of control
- T/C [4]: 97 % of control
- T/C [6]: 86 % of control

SMILES: O=Nc1ccc(O)cc1
- T/C (endpoint: mean survival time, dose: 50.0 mg/kg/injection, schedule: Q04DX003 (ip), vehicle: saline with Tween-80): 100 % of control
- T/C [2]: 105 % of control and 107 % of control
- T/C [4]: 95 % of control and 111 % of control

SMILES: COC(=O)C1(C(=O)OC)CCCCC1=O
- T/C [1]: 98 % of control
- T/C [2]: 97 % of control
- T/C [3]: 95 % of control
- T/C [4]: 94 % of control
- T/C [5]: 95 % of control
- T/C [6]: 89 % of control

SMILES: CCc1cc(/C=C2\C(=O)C=Cc3ccccc32)c(O)s1
- T/C [7]: 101 % of control
- T/C [8]: 96 % of control
- T/C [9]: 96 % of control

SMILES: OC1CC2CC1C1C=CCC21 (stereo not drawn)
- T/C (endpoint: mean survival time, dose: 50.0 mg/kg/injection, schedule: Q01DX009 (ip), vehicle: saline with Tween-80): 95 % of control
- T/C [1]: 98 % of control
- T/C [2]: 93 % of control
- T/C [3]: 93 % of control
- T/C [4]: 93 % of control

SMILES: CC(C)c1ccc2c(c1)CCC(C(Cl)Cl)C2(C)C (stereo not drawn)
- T/C [9]: 95 % of control
- T/C [10]: 111 % of control
- T/C [11]: 100 % of control

SMILES: O=[N+]([O-])c1ccc2c(c1)sc1cc([N+](=O)[O-])c(Br)cc12
- T/C [9]: 97 % of control
- T/C [10]: 94 % of control
- T/C [11]: 112 % of control

— PubChem BioAssay AID256 (DTP/NCI, 2004)
